{
  "source": "patent US10532082B2",
  "about": "“SOCS1-derived peptide for use in chronic complications of diabetes” (Fundació Hospital Universitari Vall d'Hebron-Institut de …, priority 2014, dated 2020)",
  "key": {"[1]": {"tested_on": "diabetic mice (db/db)", "assay": "Glial activation by GFAP immunofluorescence in retina, topical eye drops", "format": "in vivo", "experimental": "8-week old diabetic mice (db/db) received the miS1 peptide in the form of eye drops (5 μL drops in each eye; 10 mg/mL; twice a day for 15 days; n=7 mice). Diabetic mice treated with the non-functional peptide Mut (n=7), treated with vehicle and non-diabetic mice (db/+) were used as controls. The eye drops were directly administered on the upper surface of the cornea of each eye using a micropipette. The weight and glycemia (colorimetric assay) were controlled throughout the study period. On day 15, the drop with the miS1 peptide or vehicle was administered about two hours before autopsy. […]\nGlial activation was evaluated by means of GFAP (Glial fibrillar acidic protein) immunofluorescence following the methodology described in other studies (Bogdanov et al. PLoS One. 2014; 9:e97302). […] The images of diabetic and control samples were taken with identical parameters and the topographic distribution of the GFAP labelling was analyzed in a scale of 0 to 5 (Anderson et al. Clin Ophthalmol 2008; 2(4):801-16). […] Apoptosis was determined by means of TUNEL (Terminal Transferase dUTP Nick-EndLabeling; fluorescence kit) immunohistochemistry using the previously described method (Bogdanov et al. PLoS One. 2014; 9:e97302) and subsequent quantification under a fluorescence microscope. […]"}, "[2]": {"tested_on": "streptozotocin diabetic apoE-deficient mice", "assay": "Kidney histology (lesions, fibrosis, inflammatory infiltrate) in diabetic mice", "format": "in vivo", "conditions": "STZ apoE mice, i.p. 8 weeks", "experimental": "(§1) Apolipoprotein E (apoE)-deficient male mice of 8 weeks of age were made diabetic through streptozotocin injection (125 mg/kg weight in 10 mM citrate, pH 4.5, two consecutive days). After 2 weeks, animals with glycemia greater than 350 mg/dL were randomly distributed in two groups (n=9 animals per group): treated animals (miS1 peptide: 65 μg/day, 200 μL, intraperitoneally, every 2 days for 8 weeks) and controls (vehicle). The weight and glycemia (colorimetric assay) were controlled throughout the study period.\n(§2) At the end of the study, the anesthetized animals were perfused with saline and sacrificed, processing the tissues immediately. In renal cortex (paraffin sections, 5 μm) the glomerular and tubulointerstitial morphology was studied by means of PAS and Masson trichrome staining and the lesions were evaluated in a double-blind and semi-quantitative manner in a scale of 0-3. Renal fibrosis was determined by means of Picro-Sirius red staining and the infiltrating inflammatory cells (F4/80+ macrophages and CD3+ T-lymphocytes) by immunohistochemistry. In the aorta, the root/arch zone (serial cryosections of 8 μm from the valves to an extension of 1000 μm) was stained with Oil-red-O/hematoxylin and the area of the atherosclerotic lesion was quantified (Metamorph program). Plaque stability was assessed by collagen fiber staining with Picro-Sirius red and α-actin immunofluorescence. The inflammatory component was determined by means of immunohistochemistry for monocyte/macrophages (Moma2). The Image Pro-Plus program was used for quantifying positive stainings. The biochemical parameters in serum (glycated hemoglobin, cholesterol and creatinine) and in urine (albumin and creatinine) were determined by means of conventional commercial kits."}, "[3]": {"tested_on": "STAT3", "assay": "Renal phosphorylated STAT3 immunodetection in diabetic mice", "format": "in vivo", "conditions": "STZ apoE mice, i.p. 8 weeks; kidney sections, vs vehicle", "experimental": "as §1"}, "[4]": {"tested_on": "streptozotocin diabetic apoE-deficient mice", "assay": "Atheromatous plaque size and composition in aorta of diabetic mice", "format": "in vivo", "conditions": "STZ apoE mice, i.p.", "experimental": "as §1, §2"}, "[5]": {"tested_on": "STAT1", "assay": "STAT1 activation in cytokine-stimulated macrophages (Western blot)", "format": "cell-based, murine", "conditions": "pre-incubation 50-150 ug/mL (Mut 150 ug/mL), IFNγ and IL-6 stimulation", "experimental": "(§3) RAW264.7 macrophages and vascular smooth muscle cells (VSMC) cultured in a medium with 10% fetal bovine serum were used. The cells were synchronized (24 hours without serum), pre-incubated for 90 minutes with different peptide concentrations (miS1 or the control thereof, 50-150 μg/mL) and stimulated with cytokines (IFNγ […]). STAT activation was analyzed by means of Western blot for phosphorylated STAT1/STAT3 isoforms. JAK/STAT pathway-dependent chemokine (CCL2) expression was determined by means of ELISA. Cell viability was analyzed by MTT colorimetric assay and macrophage migration was analyzed by chemotaxis assay."}, "[6]": {"tested_on": "RAW264.7 macrophages", "assay": "Macrophage migration chemotaxis assay", "format": "cell-based, murine", "conditions": "chemotaxis assays", "experimental": "as §3"}},
  "note": "Where no end group is shown, it is not given here. [ ]: non-standard residue; d: D form. lysine‑palmitate = lysine-palmitate bound at the N-terminal end; pY = N[C@@H](Cc1ccc(OP(=O)(O)O)cc1)C(=O)O",
  "data": [
    {"substance": "miS1: SEQ ID NO 1 DTHFRTFRSHSDYRRI, kinase inhibitory region of murine SOCS1, bound to lysine-palmitate at the N-terminal end, tyrosine phosphorylated ({lysine‑palmitate}-DTHFRTFRSHSD[pY]RRI)", "values": [
      {"measurement": "GFAP score", "setting": "[1]; eye drops 50 μg in 5 μL/eye twice a day, 15 days, scale 0 to 5", "result": 3},
      {"measurement": "reduction of GFAP glial protein staining", "setting": "[1]; eye drops 15 days, compared with groups that received Mut peptide or vehicle", "result": "about 80%"},
      {"measurement": "inflammatory lymphocyte and macrophage infiltrate in kidney", "setting": "[2]", "result": "significantly reduced"},
      {"measurement": "tubulointerstitial fibrosis", "setting": "[2]", "result": "significantly reduced"},
      {"measurement": "glomerular lesions (hypercellularity, mesangial expansion and glomerular hypertrophy)", "setting": "[2]; vs vehicle", "result": "improvement"},
      {"measurement": "tubulointerstitial lesions (atrophy, degeneration and infiltrate)", "setting": "[2]; vs vehicle", "result": "improvement"},
      {"measurement": "renal STAT3 activation", "setting": "[3]", "result": "reduction"},
      {"measurement": "reduction in the size and extension of atheromatous lesions", "setting": "[4]; Oil-red-O/hematoxylin, compared with the control group that received the vehicle", "result": 50, "unit": "%"},
      {"measurement": "collagen and vascular cells content of plaques", "setting": "[4]; plaque composition", "result": "higher"},
      {"measurement": "number of macrophages in the atherosclerotic lesions", "setting": "[4]; plaque composition", "result": "reduction"},
      {"measurement": "STAT1 activation (phosphorylation)", "setting": "[5]", "result": "reduced STAT1 and STAT3 activation in a dose-dependent manner"},
      {"measurement": "macrophage migration", "setting": "[6]", "result": "anti-migratory effect"}
    ]}
  ]
}
